Values after ≈ are worked out from the molar mass of the structure shown. Read-outs that look alike come from different tables or passages of the source.
Key:
[1] = test system: E. faecalis ATCC 29212; assay type: cell-based; conditions: ATCC 29212, 20 h
Description: (§1) MIC values of the peptidomimetics were evaluated by using the modified Hancock lab protocol in non-binding polystyrene microtiter plates. Bacterial suspensions of ~5 × 10^5 CFU/mL in Mueller-Hinton broth (Difco, Sparks, MD, USA) were prepared with Mg^2+ and Ca^2+ concentrations of 4 mg/L each. The compounds were dissolved in H2O and diluted in 0.01% acetic acid, 0.2% BSA (final concentration). Aliquots (11 µL) of test compounds were then transferred to wells containing bacterial suspensions (100 µL). Low-binding sterile tubes and tips (Axygen, Union City, CA, USA) were used for preparation and transfer of the solutions of the compounds. Following incubation for 20 h of the covered plates at 35 °C (±2 °C) with circular shaking at 180 rpm, the MICs were read.

[2] = test system: K. pneumoniae ATCC 13883; assay type: cell-based
Description: as §1

[3] = test system: A. baumannii ATCC 19606; assay type: cell-based, Acinetobacter baumannii; conditions: ATCC 19606, 20 h
Description: as §1

[4] = test system: A. baumannii NMI 3658/17; assay type: cell-based, Acinetobacter baumannii; conditions: NMI 3658/17, 20 h
Description: as §1

[5] = Hydrophobicity by retention in analytical RP-HPLC (% MeCN at peak elution); assay type: physicochemical; conditions: for % MeCN at Elution, Aeris Peptide: Phenomenex Aeris Peptide XB-C18 column; for % MeCN at Elution, Aeris Peptide / % MeCN at Elution, Luna Omega / % MeCN at Elution, Supelco Discovery: gradient 0→60% B during 15 min; for % MeCN at Elution, Luna: Phenomenex Luna C18(2) column, RP-HPLC gradient 0→60% B during 15 min, relative hydrophobicity; for % MeCN at Elution, Luna Omega: Phenomenex Luna Omega Polar C18 column; for % MeCN at Elution, Supelco Discovery: Supelco Discovery BIO Wide pore C18 column
Description: For each peptide/β-peptoid hybrid oligomer, the retention time in RP-HPLC was measured on four different columns (details shown in Table 2): Phenomenex Luna C18(2) column (recommended for hydrophobic compounds [49]), Phenomenex Luna Omega Polar C18 column (recommended for both very polar and non-polar compounds [50]) as well as Phenomenex Aeris Peptide XB-C18 [51] and Sigma-Aldrich Supelco Discovery BIO Wide pore C18 [52] columns, which both are recommended for analysis of peptides. The retention times of the compounds on each column were used to calculate the acetonitrile concentration at peak elution (denoted merely as % MeCN; Table 1). As expected, the % MeCN for each compound varied somewhat between the four columns.
Starting materials and solvents were acquired from commercial suppliers (Iris Biotech, Markredwitz, Germany; Fluorochem, Hadfield, UK; and Merck, Darmstadt, Germany) and used without further purification. Water used for analytical and preparative high-performance liquid chromatography (HPLC) was filtered through a 0.22-μm capsule filter using an Evoqua LaboStar Pro TWF UV system. Purity and retention time of each peptidomimetic were determined by analytical HPLC by using a Phenomenex Luna Omega Polar C18 column (150 × 4.6 mm; particle size: 3 μm; pore size: 100 Å) on a Shimadzu Prominence and Shimadzu Nexera system using an aqueous acetonitrile (MeCN, VWR, Søborg, Denmark) gradient with 0.1% trifluoroacetic acid (TFA, Iris Biotech, Markredwitz, Germany) added (eluent A: 5:95 MeCN–H2O + 0.1% TFA, eluent B: 95:5 MeCN–H2O + 0.1% TFA); a flow rate of 0.8 mL/min was used. For elution of peptidomimetics, a linear gradient of 0% to 60% B during 15 min was used with UV detection at λ = 220 nm. […] Retention time of each peptidomimetic was also determined by using a Phenomenex Luna C18(2) column (150 × 4.6 mm; particle size: 3 μm; pore size: 100 Å), a Phenomenex Aeris Peptide XB-C18 column (150 × 4.6 mm; particle size: 3.6 μm; pore size: 100 Å), and a Sigma-Aldrich Supelco Discovery BIO Wide pore C18 column (150 × 4.6 mm, particle size: 3 µm; pore size: 300 Å). For each peptidomimetic, the percentage of MeCN at peak elution was calculated from the retention time by using the following formula:(1) %MeCN =0.95 (0.6Rt/15 min)+0.05 (1−0.6Rt/15 min)

[6] = test system: HepG2 cell line ATCC HB-8065; test: Antiproliferative activity on HepG2 cell line (MTT assay); assay type: cell-based; conditions: inhibition of growth of HepG2 cells, 48 h, MTT; highest concentration tested 1280 µg/mL
Description: (§2) Effect of compounds on mammalian cell viability was estimated on the HepG2 cell line ATCC HB-8065. In brief, HepG2 cells were seeded into flat-bottomed 96-well plates at a concentration of 5000 cells per well. Subsequently, the cells were incubated for 24 h in a humidified incubator (5% CO2, 37 °C). Then, the medium was removed, and the cells were incubated for 48 h in a humidified incubator (5% CO2, 37 °C) with peptidomimetics in serial dilutions. Then, an 3-(4,5-dimethylthiazol-2-yl)-2,5-diphenyltetrazolium bromide (MTT) assay was performed as previously described. In brief, after incubation with the test compounds, the culture medium was removed, and then fresh medium with 0.2 mg/mL MTT was added into each well of the plate. The cells were then incubated (3 h, 37 °C, 5% CO2), followed by removal of the medium with MTT and addition of 200 μL dimethyl sulfoxide at once to each sample. Absorbance of MTT was measured using the spectrophotometer TECAN Infinite M1000 at 540 nm. The relative viability was calculated by using the formula: ODtreated cells × 100/ODcontrol cells. The IC50 values are calculated by using the program Graph Pad Prism® 5.0. For all compounds, the test range was 10–1280 μg/mL.

[7] = as above; assay type: cell-based; conditions: HepG2 cells; at 1280 µg/mL, value in parenthesis; read-out: HepG2 cell viability at highest concentration tested
Description: as §2

[8] = test system: P. aeruginosa NMI 7197/19; assay type: cell-based, Pseudomonas aeruginosa; conditions: NMI 7197/19, 20 h
Description: as §1

[9] = test system: P. aeruginosa PAO1; assay type: cell-based, Pseudomonas aeruginosa; conditions: PAO1, 20 h
Description: as §1

[10] = test system: E. coli NMI 3371/16; assay type: cell-based, Escherichia coli; conditions: NMI 3371/16, 20 h
Description: as §1

[11] = test system: E. coli ATCC 25922; assay type: cell-based, Escherichia coli; conditions: ATCC 25922, 20 h
Description: as §1

[12] = test system: E. coli NMI 3898/15; assay type: cell-based, Escherichia coli; conditions: NMI 3898/15, 20 h
Description: as §1

[13] = Determination of hemolytic activity; assay type: cell-based; conditions: red blood cell suspension in PBS buffer, human red blood cells at 400 µg/mL, 37 °C
Description: The lysis of human red blood cells was measured almost as previously described, albeit with modifications. In brief, a suspension of freshly drawn human red blood cells (hRBCs) was washed three times with PBS buffer and centrifuged two times for 5 min at 2500 rpm. A two-fold serial dilution of compounds in PBS buffer was prepared. Plates (conical-bottomed 96-well plates) with three replicate wells per dilution, each containing 1% red blood cell suspension, were prepared and dosed with the test compound to achieve a final concentration of 400 μg/mL in a total volume of 100 μL. The plates were incubated (37 °C) for 60 min with mild agitation, and then the cells were pelleted by centrifugation at 1500 rpm for 5 min. The supernatants (50 μL) were then transferred to a fresh 96-well plate, and the concentration of hemoglobin was detected by measuring the OD at 405 nm. The OD of cells incubated with 1% SDS defined 100% hemolysis, while the OD of cells incubated with PBS buffer defined 0% hemolysis. The concentration tested was 400 μg/mL (only average values are stated in Table 5). The percent hemolysis was calculated by using the formula:(3) Hemolysis (%)=100×[Asample−Aneg.control/Apos.control−Aneg.control]

[14] = test system: S. aureus ATCC 29213; assay type: cell-based, Staphylococcus aureus; conditions: ATCC 29213, 20 h
Description: as §1

| SMILES | MIC, EF [1] | MIC, KP ([2]; ATCC 13883, 20 h) | MIC, AB [3] | MIC, A. baumannii NMI 3658/17 [4] | % MeCN at Elution, Aeris Peptide [5] | % MeCN at Elution, Luna [5] | % MeCN at Elution, Luna Omega [5] | % MeCN at Elution, Supelco Discovery [5] | HepG2 IC50 [6] | viability at 48 h [7] | MIC, P. aeruginosa NMI 7197/19 [8] | MIC, PA [9] | MIC, E. coli NMI 3371/16 [10] | MIC, EC [11] | MIC, E. coli NMI 3898/15 [12] | hemolysis at 60 min [13] | MIC, SA [14] | MIC against E. coli [11] | MIC, KP [2] |
| --- | --- | --- | --- | --- | --- | --- | --- | --- | --- | --- | --- | --- | --- | --- | --- | --- | --- | --- | --- |
| NCCCC[C@H](NC(=O)CCN(Cc1ccc(F)cc1)C(=O)[C@H](CCCCN)NC(=O)CCN(Cc1ccc(F)cc1)C(=O)[C@H](CCCCN)NC(=O)COCCOCCOCCNC(=O)CCN(Cc1ccc(F)cc1)C(=O)[C@H](CCCCN)NC(=O)CCN(Cc1ccc(F)cc1)C(=O)[C@H](CCCCN)NC(=O)CCN(Cc1ccc(F)cc1)C(=O)[C@@H](N)CCCCN)C(=O)N(CCC(N)=O)Cc1ccc(F)cc1 [Compound 8, H-[X]3-sPEG3-[X]3-NH2] | >64 µg/mL | >64 µg/mL | 4 to 8 µg/mL | 4 µg/mL (≈ 1.95 µM) | 39.6 % MeCN | 41.7 % MeCN | 42.1 % MeCN | 41.9 % MeCN | 601 µg/mL | 10% | >64 µg/mL | 32 µg/mL (≈ 15.6 µM) | 4 µg/mL (≈ 1.95 µM) | 4 µg/mL (≈ 1.95 µM) | 8 µg/mL (≈ 3.9 µM) | 8.9% | – | – | – |
| NCCCC[C@H](NC(=O)CCN(Cc1ccc(F)cc1)C(=O)[C@H](CCCCN)NC(=O)CCOCCOCCOCCOCCNC(=O)CCN(Cc1ccc(F)cc1)C(=O)[C@H](CCCCN)NC(=O)CCN(Cc1ccc(F)cc1)C(=O)[C@H](CCCCN)NC(=O)CCOCCOCCOCCOCCNC(=O)CCN(Cc1ccc(F)cc1)C(=O)[C@H](CCCCN)NC(=O)CCN(Cc1ccc(F)cc1)C(=O)[C@@H](N)CCCCN)C(=O)N(CCC(N)=O)Cc1ccc(F)cc1 [Compound 18, H-[X]2-sPEG4-[X]2-sPEG4-[X]2-NH2] | >64 µg/mL | 64 µg/mL (≈ 27.2 µM) | 8 to 16 µg/mL | 16 µg/mL (≈ 6.79 µM) | 40.1 % MeCN | 42.1 % MeCN | 42.7 % MeCN | 42.3 % MeCN | ~1280 µg/mL | 41% | >64 µg/mL | >64 µg/mL | 8 to 16 µg/mL | 4 to 8 µg/mL | 16 µg/mL (≈ 6.79 µM) | 8.3% | >64 µg/mL | 1.2 to 2.4 µM | – |
| NCCCC[C@H](NC(=O)CCN(Cc1ccc(F)cc1)C(=O)[C@H](CCCCN)NC(=O)CCN(Cc1ccc(F)cc1)C(=O)[C@H](CCCCN)NC(=O)COCCNC(=O)CCN(Cc1ccc(F)cc1)C(=O)[C@H](CCCCN)NC(=O)CCN(Cc1ccc(F)cc1)C(=O)[C@H](CCCCN)NC(=O)CCN(Cc1ccc(F)cc1)C(=O)[C@@H](N)CCCCN)C(=O)N(CCC(N)=O)Cc1ccc(F)cc1 [Compound 6, H-[X]3-sPEG1-[X]3-NH2] | – | – | 4 to 8 µg/mL | 4 µg/mL (≈ 2.04 µM) | 39.2 % MeCN | 41.2 % MeCN | 41.6 % MeCN | 41.4 % MeCN | 761 µg/mL | 6% | >64 µg/mL | 32 µg/mL (≈ 16.3 µM) | 4 µg/mL (≈ 2.04 µM) | 4 µg/mL (≈ 2.04 µM) | 8 µg/mL (≈ 4.08 µM) | 7.7% | 32 to 64 µg/mL | – | 64–>64 |
